Publication PMC5011342, “A high throughput drug screening assay to identify compounds that promote oligodendrocyte differentiation using acutely dissociated and purified oligodendrocyte precursor cells” (BMC Research Notes, 2016)
Read-outs that look alike come from different tables or passages of the source.

Columns and labels:
[1] = test system: acutely dissociated and purified rat OPCs; assay: Acute OL differentiation assay (MBP expression/cell, immunofluorescent image quantification); type: cell-based; conditions: Rattus norvegicus, sheet "All OLga data"
Method in brief: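 This acute differentiation assay used purified rat OPCs from postnatal day 6–7 pups, seeded into PDL/laminin-coated 96-well plates in differentiation medium lacking PDGF and FGF. Compounds were applied in quadruplicate after a 1–2 h preincubation at 37 °C, 10 % CO2, with 0.1 % DMSO negative and 40 ng/ml T3 positive controls in eight wells. After fixation on DIV4, anti-MBP immunofluorescence images yielded MBP expression/cell.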

[2] = test system: expanded OPCs; assay: cells; conditions: for 0.1 µM (% DMSO) / 1 µM (% DMSO) / 10 µM (% DMSO): alamarBlue viability of expanded OPCs, relative to DMSO control; for 0.1 µM (% DMSO): compound at 0.1 µM; for 1 µM (% DMSO): compound at 1 µM; for 10 µM (% DMSO): compound at 10 µM; for viability at 0.1 µM / viability at 1 µM / viability at 10 µM: Rattus norvegicus, 72 h
Method in brief: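 Toxicity screen: compounds added at 0.1, 1 and 10 µM to PDGF-AA-expanded OPCs in 96-well plates, 3-day incubation at 37 °C, 10% CO2, then alamarBlue 1:10 for 4 h with fluorescence readout. Results set screening doses of 10/2, 2/0.4 or 0.4/0.08 µM.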

[3] = test compound at 2 uM, MBP expression relative to quetiapine, NCC library screen, read-out: 2 uM (% Quet)
[4] = 2 uM test compound, relative to quetiapine, read-out: OL differentiation, 2 uM (% Quet)
[5] = 10 uM test compound, relative to quetiapine, read-out: OL differentiation, 10 uM (% Quet)
[6] = read-out: 0.1 µM (% DMSO), alamarBlue viability of expanded OPCs, compound at 0.1 µM, sheet All Tox data
[7] = read-out: 1 µM (% DMSO), alamarBlue viability of expanded OPCs, compound at 1 µM, sheet All Tox data
[8] = read-out: 10 µM (% DMSO), alamarBlue viability of expanded OPCs, compound at 10 µM, sheet All Tox data
[9] = test compound at 2 uM, NCC library screen, relative to quetiapine, read-out: 2 uM (% Quet)
[10] = test compound at 10 uM, NCC library screen, relative to quetiapine, read-out: 10 uM (% Quet)
[11] = read-out: 0.1 µM (% DMSO), alamarBlue viability, NCC library compound at 0.1 µM, sheet "All Tox data"
[12] = read-out: 1 µM (% DMSO), alamarBlue viability, NCC library compound at 1 µM, sheet "All Tox data"
[13] = read-out: 10 µM (% DMSO), alamarBlue viability, NCC library compound at 10 µM, sheet "All Tox data"
[14] = test compound at 10 uM, MBP expression relative to quetiapine, NCC library screen, read-out: 10 uM (% Quet)
[15] = 0.4 uM test compound, relative to quetiapine, read-out: OL differentiation, 0.4 uM (% Quet)

| Structure (SMILES) | activation at 2 µM [1, 4] [%] | activation at 10 µM [1, 5] [%] | viability at 0.1 µM [2, 6] [%] | viability at 1 µM [2, 7] [%] | viability at 10 µM [2, 8] [%] | activation at 2 µM [1, 9] [%] | activation at 10 µM [1, 10] [%] | viability at 0.1 µM [2, 11] [%] | viability at 1 µM [2, 12] [%] | viability at 10 µM [2, 13] [%] | further results |
| --- | --- | --- | --- | --- | --- | --- | --- | --- | --- | --- | --- |
| CCC(C)(C)C(=O)O[C@H]1C[C@@H](C)C=C2C=C[C@H](C)[C@H](CC[C@@H]3C[C@@H](O)CC(=O)O3)[C@H]21 [Simvastatin] | – | – | – | – | – | – | – | – | – | – | activation at 0.4 µM ([1]; test compound at 0.4 uM, MBP expression relative to quetiapine, NCC library screen, read-out: 0.4 uM (% Quet)): -105%; activation at 2 µM [1, 3]: -140%; 0.1 µM (% DMSO) [2]: 157.3 % DMSO; 1 µM (% DMSO) [2]: 86.5 % DMSO; 10 µM (% DMSO) [2]: 25.7 % DMSO |
| CC(C)NCC(O)c1ccc(NS(C)(=O)=O)cc1 (centres unmarked) [Sotalol] | -13.4 | -22.5 | 96.2 | 89.5 | 107 | – | – | – | – | – | – |
| CN[C@@H]1[C@H](O)[C@H](NC)[C@H]2O[C@@]3(O)C(=O)C[C@@H](C)O[C@H]3O[C@@H]2[C@H]1O [Spectinomycin] | – | – | – | – | – | 7.7 | 18.9 | – | – | – | 0.1 µM (% DMSO) [2]: 91.8 % DMSO; 1 µM (% DMSO) [2]: 87.7 % DMSO; 10 µM (% DMSO) [2]: 83.6 % DMSO |
| CC(=O)S[C@@H]1CC2=CC(=O)CC[C@]2(C)[C@H]2CC[C@@]3(C)[C@@H](CC[C@@]34CCC(=O)O4)[C@H]12 [Spironolactone] | – | – | – | – | – | -13 | -65.1 | – | – | – | 0.1 µM (% DMSO) [2]: 88.4 % DMSO; 1 µM (% DMSO) [2]: 80.5 % DMSO; 10 µM (% DMSO) [2]: 61.8 % DMSO |
| C[C@]12Cc3c[nH]nc3C[C@@H]1CC[C@@H]1[C@@H]2CC[C@@]2(C)[C@H]1CC[C@]2(C)O [Stanozolol] | – | – | – | – | – | 42.2 | – | 91.1 | 92.6 | 61.7 | activation at 0.4 µM ([1]; test compound at 0.4 uM, NCC library screen, relative to quetiapine, read-out: 0.4 uM (% Quet)): 6.5% |
| Cc1cn([C@H]2C=C[C@@H](CO)O2)c(=O)[nH]c1=O [Stavudine] | -25.8 | -25 | 110 | 91.5 | 107 | – | – | – | – | – | activation at 2 µM [1, 3]: -21.6%; activation at 10 µM [1, 14]: -35.1%; 0.1 µM (% DMSO) [2]: 90.1 % DMSO; 1 µM (% DMSO) [2]: 97.1 % DMSO; 10 µM (% DMSO) [2]: 101.2 % DMSO |
| CC(C)(C)C(O)/C=C/c1ccc2c(c1)OCO2 (centres unmarked) [Stiripentol] | – | – | – | – | – | -12 | -14.2 | 85.4 | 89.5 | 83.7 | – |
| CC(=O)NS(=O)(=O)c1ccc(N)cc1 [Sulfacetamide] | – | – | – | – | – | 11.2 | 0.16 | 90.1 | 91.6 | 89.7 | – |
| O=C(O)c1cc(/N=N/c2ccc(S(=O)(=O)Nc3ccccn3)cc2)ccc1O [Sulfasalazine] | 15.1 | -0.6 | 89 | 89.8 | 94.9 | – | – | – | – | – | – |
| O=C1C(CC[S+]([O-])c2ccccc2)C(=O)N(c2ccccc2)N1c1ccccc1 (centres unmarked) [Sulfinpyrazone] | – | – | – | – | – | -3.8 | -6.8 | 88.8 | 92.9 | 88.2 | – |
| Cc1noc(NS(=O)(=O)c2ccc(N)cc2)c1C [Sulfisoxazole] | – | – | – | – | – | -3.5 | 7.6 | 93.5 | 99.1 | 103 | – |
| CC1=C(CC(=O)O)c2cc(F)ccc2/C1=C\c1ccc([S+](C)[O-])cc1 (centres unmarked) [Sulindac] | – | – | – | – | – | 0.6 | -11.2 | – | – | – | 0.1 µM (% DMSO) [2]: 90.8 % DMSO; 1 µM (% DMSO) [2]: 94.4 % DMSO; 10 µM (% DMSO) [2]: 90.3 % DMSO |
| CCN1CCCC1CNC(=O)c1cc(S(N)(=O)=O)ccc1OC (centres unmarked) [Sulpiride] | -9.7 | 6 | 105 | 116 | 115 | – | – | – | – | – | – |
| CCN1CCCC1CNC(=O)c1cc(S(=O)(=O)CC)ccc1OC (centres unmarked) [Sultopride] | 7.7 | 0 | 93.7 | 89.8 | 96.2 | – | – | – | – | – | – |
| CNS(=O)(=O)Cc1ccc2[nH]cc(CCN(C)C)c2c1 [Sumatriptan] | 69.1 | 84.6 | – | – | – | – | – | 95.1 | 98.2 | 92.1 | – |
| CNCC(O)c1ccc(O)cc1 (centres unmarked) [Synephrine] | – | – | – | – | – | -7.3 | 2.8 | 85.8 | 94.3 | 93.4 | – |
| Nc1c2c(nc3ccccc13)CCCC2 [Tacrine] | -10.2 | 2.8 | 80.5 | 80 | 77.8 | – | – | – | – | – | – |
| C=CC[C@@H]1/C=C(\C)C[C@H](C)C[C@H](OC)[C@H]2O[C@@](O)(C(=O)C(=O)N3CCCC[C@H]3C(=O)O[C@H](/C(C)=C/[C@@H]3CC[C@@H](O)[C@H](OC)C3)[C@H](C)[C@@H](O)CC1=O)[C@H](C)C[C@@H]2OC [Tacrolimus] | -39.9 | -53.9 | 94.6 | 102 | 109 | – | – | – | – | – | – |
| CN1CC(=O)N2[C@H](c3ccc4c(c3)OCO4)c3[nH]c4ccccc4c3C[C@@H]2C1=O [Tadalafil] | 21.4 | -16 | 99.2 | 93 | 93.9 | – | – | – | – | – | – |
| O=C1c2c(O)cc(O)cc2OC(c2ccc(O)c(O)c2)C1O (centres unmarked) [Taxifolin] | -1.7 | -59 | 96.4 | 93.7 | 88.7 | – | – | – | – | – | – |
| O=c1[nH]c(=O)n(C2CCCO2)cc1F (centres unmarked) [Tegafur] | -23.9 | -28 | 88.4 | 92.6 | 99.3 | – | – | – | – | – | – |
| [H]/N=C(/NCCCCC)N/N=C/c1c[nH]c2ccc(OC)cc12 [Tegaserod] | – | – | – | – | – | – | – | 88.5 | 33.1 | 11.5 | activation at 0.08 µM ([1]; 0.08 uM test compound, relative to quetiapine, read-out: OL differentiation, 0.08 uM (% Quet)): -15.2%; activation at 0.4 µM [1, 15]: -63.1% |
| CC[C@H]1OC(=O)[C@H](C)C(=O)[C@H](C)[C@@H](O[C@@H]2O[C@H](C)C[C@H](N(C)C)[C@H]2O)[C@](C)(OC)C[C@@H](C)C(=O)[C@H](C)[C@H]2N(CCCCn3cnc(-c4cccnc4)c3)C(=O)O[C@]12C [Telithromycin] | – | – | – | – | – | 17.7 | 10.4 | 98.4 | 105 | 94 | – |
| CCCc1nc2c(C)cc(-c3nc4ccccc4n3C)cc2n1Cc1ccc(-c2ccccc2C(=O)O)cc1 [Telmisartan] | – | – | – | – | – | -6.1 | -61.8 | 95.6 | 82.3 | 53.3 | – |
| Cn1nnc2c(C(N)=O)ncn2c1=O [Temozolomide] | -10.2 | -8.5 | 105 | 94.7 | 100 | – | – | – | – | – | – |
| COc1cc2nc(N3CCN(C(=O)C4CCCO4)CC3)nc(N)c2cc1OC (centres unmarked) [Terazosin] | -2.4 | 8.7 | 81.1 | 80.8 | 78.7 | – | – | – | – | – | activation at 2 µM [1, 3]: -10.8%; activation at 10 µM [1, 14]: -37.2%; 0.1 µM (% DMSO) [2]: 93.3 % DMSO; 1 µM (% DMSO) [2]: 94.6 % DMSO; 10 µM (% DMSO) [2]: 74.1 % DMSO |
| CN(C/C=C/C#CC(C)(C)C)Cc1cccc2ccccc12 [Terbinafine] | -91.1 | – | – | – | – | – | – | 90.5 | 92.2 | 11 | activation at 0.4 µM [1, 15]: -31.1% |
| CC(C)(C)NCC(O)c1cc(O)cc(O)c1 (centres unmarked) [Terbutaline] | – | – | – | – | – | – | – | – | – | – | activation at 2 µM [1, 3]: 8.9%; activation at 10 µM [1, 14]: 12.1%; 0.1 µM (% DMSO) [2]: 91.9 % DMSO; 1 µM (% DMSO) [2]: 95.2 % DMSO; 10 µM (% DMSO) [2]: 89.9 % DMSO |
| O=C1CCC(N2C(=O)c3ccccc3C2=O)C(=O)N1 (centres unmarked) [Thalidomide] | – | – | – | – | – | -9.1 | -26.7 | 110 | 92.4 | 99.3 | – |
